Measurements published in patent US20160095861A1, “OPHTHALMIC OINTMENTS COMPRISING VALGANCICLOVIR HYDROCHLORIDE FOR TREATING INFECTIVE EYE DISEASES” (SKIRON BIOSCIENCES, priority 2014, published 2016).
Where a name gives a salt, the structure may show the parent alone.

Legend:
[1] = system: CMV-induced inflammation in the eye; test: Valganciclovir hydrochloride ophthalmic ointments tested in a patient with CMV-induced inflammation in the eye (Example 4); format: in vivo, human; conditions: topical ophthalmic ointment, 1% w/w and 5% w/w, one patient
Method: The 1% w/w and 5% w/w valganciclovir hydrochloride ophthalmic ointments were tested in a patient with CMV-induced inflammation in the eye.

[2] = system: hypertensive anterior uveitis associated with clinical signs of cytomegalovirus (CMV) iritis; test: Case report: topical valganciclovir for hypertensive anterior uveitis with clinical signs of CMV iritis (Example 5); format: in vivo, human
Method: Valganciclovir was extracted from the tablet form (450 mg, Valcyte, Roche). Briefly, tablets were dissolved in 0.001N HCl (2 ml per tablet), the insoluble excipients were isolated by centrifugation at 16,000 g, the solution was then filtered through 0.2 μm filter into ice-cold isopropanol (20 ml per tablet) leading to precipitation of the valganciclovir. The precipitate was spun down at 3,000 g, isopropanol was decanted and remaining volatile solvents were removed in the lyophilizer. The identity of valganciclovir was confirmed by liquid chromatography-mass spectrometry (LC-MS). 1% (w/w) valganciclovir ointment in the oleaginous base (20% mineral oil and 80% white petrolatum) was made by following standard compounding practices.
The patient was referred to us […] with chronic low-grade iritis and IOPs that were not adequately managed with medications (prednisolone acetate, brimonidine, and dorzolamide/timolol). Based on the history, pattern of keratic precipitates, mild anterior chamber inflammation, iris atrophy and elevated IOP (25 mmHg in the right eye and 16 mmHg in the left eye) CMV iritis was suspected. […]. PCR of the aqueous was negative for CMV, herpes simplex virus (HSV), and varicella-zoster virus (VZV) DNA.^6 However, because we had previously observed false negative PCR results in a substantial proportion of eyes suspected to have CMV iritis on clinical grounds, we decided to start a course of oral valganciclovir (900 mg twice daily). Within six weeks their IOP returned to normal levels and after 3 months all keratic precipitates completely resolved.
Nine months after the start of valganciclovir therapy, valganciclovir was discontinued and twice daily ganciclovir gel, 0.15%, was started. […] The patient refused to restart oral valganciclovir due to concerns about the toxicity of systemic valganciclovir, and continued with ganciclovir gel, topical corticosteroids, and topical anti-hypertensives.
At this same time, the patient began treating their condition with self-compounded topical valganciclovir. They initially wore a contact lens soaked overnight in 5% valganciclovir and later formulated 5% valganciclovir eye drops, which they administered 2-4 times per day. With this approach the patient's ocular inflammation and IOP improved and surgery was postponed, but the patient still required topical corticosteroids and topical anti-hypertensive medications. After 3 years of controlled inflammation on valganciclovir eye drops, the patient became concerned about medication stability and began formulating 1% valganciclovir ointment in an oleaginous base (80% white petrolatum and 20% mineral oil). […] With long-term use of topical valganciclovir ointment, the patient was able to taper off topical corticosteroids and topical anti-hypertensives and has remained stable since then (9 months).

CC(C)[C@H](N)C(=O)OCC(CO)OCn1cnc2c(=O)nc(N)[nH]c21 (stereo partly drawn) [valganciclovir, valganciclovir hydrochloride]
control of the inflammation and lowering of the intraocular pressure [1]: effectiveness | ocular inflammation and intraocular pressure ([2]; oral valganciclovir together with topical corticosteroids): ocular inflammation resolved and intraocular pressure normalized | disease status after dose reduction ([2]; oral, 450 mg twice daily): the disease remained quiet | leukopenia (complete blood counts tested periodically) ([2]; oral, 900 mg twice daily): no leukopenia developed | time until IOP returned to normal levels ([2]; oral, 900 mg twice daily): six | time until all keratic precipitates completely resolved ([2]; oral, 900 mg twice daily): 3 months
